For data set [1], the system named is Liver tissue. Nature of the data set: Nucleic acid release from liver slices, pH 6, 45° C., 30 minutes, surfactants and additives. The settings on record: for amount of nucleic acid released in comparison with surfactant without an additive: FIG. 7. On the procedure:
To compare CTACl to CTAB, those two surfactants were evaluated in parallel along with hexadecyltrimethylammonium bromide (HDTAB), hexadecyltrimethylammonium chloride (HDTACl), and Sarkosyl. Three additives, phenylglyoxal, acridine orange (e.g., Sigma #A6014), and 1-methyl-2-pyrolidinone, were also evaluated. Phenylglyoxal was tested to determine if it would reduce RNAse activity. […] 1-Methyl-2-pyrrolidinone was tested to see if it would enhance solubility of the sample by various reaction compositions.
Slices of liver-tissue (100-200 mg/sample) were placed into twenty-one Eppendorf tubes. Four hundred microliters of a reaction composition, comprising 100 mM MES, pH 6, 20 mM CaCl2, and 1 mg Proteinase K, was added to each tube.
The tubes were incubated at 45° C. for 30 minutes with mixing (Eppendorf Thermomixer, Model 5436). Surfactant: protease complexes were solubilized using methods the same as or similar to those described in Example 7. Remaining tissue fragments were removed by centrifugation using methods the same as or similar to those described in Example 7. The supernatant was phenol extracted, isopropanol precipitated, and ethanol washed using methods the same as or similar to those described in Example 6.

The next data set deals with slices of liver. Briefly: Maceration of liver slices by reaction compositions at 65° C. The settings on record: 65° C. As to the method:
Initially, a series of reaction compositions were analyzed for their ability to disaggregate a biological sample, e.g., slices of liver. These reaction compositions comprised 100 mM Tris, pH 8.0, 20 mM dithiothreitol (DTT), and optionally,1 mg/ml Proteinase K, surfactants (e.g., cationic, nonionic and anionic detergents), chaotropes, or the additive 1-methyl-2-pyrollidinone (Sigma). Each reaction compositions was placed in a tube with a slice of liver and then incubated at 65° C. The tubes were observed periodically to determine which reaction compositions were able to efficiently macerate the sample.

Data set [2] relates to Liver tissue. Briefly: Liver tissue disaggregation by 1% surfactant with or without Proteinase K at 60° C. Set-up: Tissue Disaggregation: scale not given here. The settings on record: 60° C., 1% surfactant. On the procedure:
To evaluate the ability of various cationic surfactants to increase the digestion of tissue by Proteinase K, liver slices were digested using reaction compositions including one of the sixteen surfactants (shown in Table 4), both with and without Proteinase K. The reducing agent dithiothreitol (DTT) was included to evaluate the effect of reducing conditions on tissue digestion. […] One of the sixteen surfactants was added to one pair of tubes to yield a final concentration of 1% surfactant. The seventeenth pair of tubes served as non-surfactant controls. One milligram (mg) of Proteinase K was added to one tube of each of the seventeen pairs.
PK=presence or absence of Proteinase K in the reaction composition; Y=Proteinase K was present; N=Proteinase K was not present in the reaction composition.

Data set [3] can be described thus: Solubility of surfactants (0.5% Sarkosyl, LDS, SDS, CTAB; 5.0% others) in salt solutions. On the procedure:
In certain instances, the solubility of detergents in high salt may relate to on the composition of the salt and the detergent itself. A mixing experiment was performed to examine the solubility of a variety of anionic, cationic, and nonionic surfactants in different salt compositions. […] The salt solutions contained Lil, Nal, KI, Rbl, Csl , GuSCN, GuHCl, or NaClO4, at pH 6.0 or 10.0. […] The solubility of the surfactants was scored as either soluble or insoluble. The solubility of the surfactant in the salt solution was determined initially by visual observations for cloudiness or precipitate formation. The resulting solutions were also centrifuged to verify the absence of a precipitate by the absence of a precipitate pellet.

The nature of data set [4]: Solubility of 1% cationic surfactants in 5M chaotropic salt solutions containing 2% Tween 20. An excerpt:
The solubilities of several cationic surfactants were examined in different chaotropic salt solutions. The cationic surfactants examined were cetyltrimethylammonium bromide (CTAB), cetyltrimethylammonium chloride (CTACl), tetradecyltrimethylammonium bromide (TTAB), tetradecyltrimethylammonium chloride (TTACl), dodecyltrimethylammonium bromide (DTAB), dodecyltrimethylammonium (DTACl), dodecylethyidimethylammonium bromide (DEDTAB), decyltrimethylammonium bromide (D10TAB), and dodecyltriphenylphosphonium bromide (DTPB). Each of the cationic surfactants tested was presented in a 1% concentration. Each of the cationic surfactants was examined in a 5M solution of one of the chaotropic salts containing 2% Tween 20. Each cationic surfactant and salt combination was tested at pH 6 (50 mM MES), pH 8 (50 mM Tris-HCl), and pH 10 (50 mM AMP).

The mark [5] stands for this setting: No Proteinase K, 16-24 hr, additive 2%.
[6] abbreviates: Fifteen Minutes Incubation, Proteinase K not present (N).
Setting [7] is: Fifteen Minutes Incubation, Proteinase K present (Y).
[8] abbreviates: Fifty-Two Minutes Incubation, Proteinase K not present (N).
The mark [9] stands for this setting: Fifty-Two Minutes Incubation, Proteinase K present (Y).
[10] abbreviates: 5M chaotropic salts, 2% Tween 20.
[11] abbreviates: 1 mg/ml Proteinase K, 16-24 hr, additive 0.1%.
Setting [12] is: 1 mg/ml Proteinase K, 16-24 hr, additive 1%.
The mark [13] stands for this setting: 1 mg/ml Proteinase K, 1 hr, additive 0.1%.
Setting [14] is: 1 mg/ml Proteinase K, 1 hr, additive 1%.

Data on 20 compounds can be found in patent publication US7303876B2 (Applera Corporation, priority 2000, dated 2007).

Where two headings read alike, the source gives them in different places.

With `CN1CCCC1=O` [1-methyl 2-pyrrolidinone, 1-methyl-2-pyrolidinone], the “amount of nucleic acid released in comparison with surfactant without an additive” value with Liver tissue [1] (10% additive with 1% CTACl) was “greater”; in the data set on Liver tissue [1] (10% additive with 1% HDTAB), “less”. In the data set on slices of liver (setting [5]), the “maceration of liver slice” value came to 0%.
Consider `CCCCCCCCCCCCCC[N+](C)(C)Cc1ccccc1.[Cl-]` [Benzyldimethyltetradecyl ammonium chloride], for which the “Tissue Disaggregation” value with Liver tissue [2] (setting [6]) came out at 0; in the data set on Liver tissue [2] (setting [7]), 0; with Liver tissue [2] (setting [8]) it was 0; in the data set with Liver tissue [2] (setting [9]), 1.
Turning to `CCCCCCCCCCCCOCCOCCOCCO` [Brij 30, triethyleneglycol monolauryl ether], the Solubility of surfactant result was “S” in data set [3] (4 M GuSCN, Urea, pH 6.0); “S” in data set [3] (4 M GuSCN, Urea, pH 10.0); “S(V)” in data set [3] (4 M NaI, Urea, pH 6.0); “S” in data set [3] (6 M GuHCl, pH 6.0); “S” in data set [3] (6 M GuHCl, pH 10.0); “S” in data set [3] (6 M GuSCN, pH 6.0). The Solubility of surfactant result in data set [3] (6 M GuSCN, pH 10.0) is “S”; in data set [3] (6 M NaI, pH 6.0), “S”.
Regarding `CCCCCCCCCCCC[N+](C)(C)CC.[Br-]` [DEDTAB, dodecylethyldimethylammonium bromide], the “relative solubility in chaotropic salt solutions (in words)” value (“relative solubility” below) in data set [4] (setting [10]) is recorded as “more soluble than larger surfactants”.
Still for that read-out and setting: then `CCCCCCCCCCCC[N+](C)(C)C.[Cl-]` [DTACl, dodecyltrimethylammonium chloride], with “more soluble than larger surfactants”.
As for `CCCCCCCCCCCC[P+](c1ccccc1)(c1ccccc1)c1ccccc1.[Br-]` [DTPB, dodecyltriphenylphosphonium bromide], the “relative solubility” value in data set [4] is “more soluble than larger surfactants”.
For the compound `CCCCCCCCCCCCCCCC[N+](C)(C)C.[Cl-]` [HDTACl, hexadecyltrimethylammonium chloride], the “high molecular weight nucleic acid by gel electrophoresis” value with Liver tissue [1] (with 1-methyl-2-pyrolidinone) is recorded as “High molecular weight nucleic acid was also observed”.
Turning to `CCCCCCCCCCCCCCCC[N+](C)(C)C.[Br-]` [Hexadecyltrimethylammonium bromide, hexadecyltrimethylammonium bromide], the “high molecular weight nucleic acid by gel electrophoresis” value in the data set with Liver tissue [1] (all reaction compositions containing the surfactant, FIG. 8) is reported as “high molecular weight nucleic acid was apparent”. Also, the “Tissue Disaggregation” value with Liver tissue [2] (setting [6]) is given as 0; in the data set with Liver tissue [2] (setting [7]) it was 0; with Liver tissue [2] (setting [8]), 0; with Liver tissue [2] (setting [9]), 1.
In the case of `CCCCCCCC/C=C\CCCCCCCC[N+](C)(C)Cc1ccccc1.[Cl-]` [Mackernium KP, olealkonium chloride], the “Tissue Disaggregation” value in the data set with Liver tissue [2] (setting [6]) came out at 0; in the data set on Liver tissue [2] (setting [7]), 1; in the data set on Liver tissue [2] (setting [8]), 0; in the data set with Liver tissue [2] (setting [9]), 4.
With `CCCCCCCCCCCCCCCCCC[N+](C)(C)Cc1ccccc1.[Cl-]` [Mackernium SDC-85, Stearalkonium chloride], the “Tissue Disaggregation” value in the data set on Liver tissue [2] (setting [6]) turned out to be 0; with Liver tissue [2] (setting [7]), 3; in the data set on Liver tissue [2] (setting [8]) it was 0; in the data set with Liver tissue [2] (setting [9]) it was 3.
Take `CCCCCCCCCC[N+](C)(C)C.[Br-]` [Sample D10TAB, decyltrimethylammonium bromide]: the “relative solubility” value in data set [4] was “more soluble than larger surfactants”.
For the compound `CCCCCCCCCCCCCC[N+](C)(C)C.[Br-]` [TTAB, tetradecyltrimethylammonium bromide], the “Tissue Disaggregation” value with Liver tissue [2] (setting [6]) worked out at 0; in the data set on Liver tissue [2] (setting [7]), 0; in the data set with Liver tissue [2] (setting [8]) it was 0; in the data set on Liver tissue [2] (setting [9]), 1.
Consider (octylphenoxy)polyethoxyethanol [IGEPA], for which the Solubility of surfactant entry in data set [3] (pH 6) and in data set [3] (pH 10) was “S” each time.
On to Benzalkonium Chloride, for which the “Tissue Disaggregation” value with Liver tissue [2] (setting [6]) came to 0; in the data set with Liver tissue [2] (setting [7]), 1; in the data set with Liver tissue [2] (setting [8]) it was 0; in the data set on Liver tissue [2] (setting [9]), 2.
Quaternium-84 [Mackernium NLE]: the “Tissue Disaggregation” value in the data set with Liver tissue [2] (setting [6]) is reported as 0; in the data set on Liver tissue [2] (setting [7]), 1; with Liver tissue [2] (setting [8]), 0; in the data set on Liver tissue [2] (setting [9]) it was 1.
Take “polyoxyethylenesorbitan monolaurate [Tween 21]”: the Solubility of surfactant entry in data set [3] (pH 6) and in data set [3] (pH 10) was “S” in each case.
As to “polyoxyethylenesorbitan monooleate [Tween 80]”, the Solubility of surfactant entry in data set [3] (pH 6) and in data set [3] (pH 10) was “S” in each case. The “maceration of liver slice” value in the data set with slices of liver (setting [11]), in the data set with slices of liver (setting [12]), with slices of liver (setting [13]) and with slices of liver (setting [14]) was 0% in each case.
Turning to “polyoxyethylenesorbitan monopalmitate [Tween 40]”, the Solubility of surfactant result in data set [3] (pH 6) and in data set [3] (pH 10) was “S” each time.
As to “polyoxyethylenesorbitan monostearate [Tween 60]”, the Solubility of surfactant entry in data set [3] (pH 6) and in data set [3] (pH 10) was “S” in each case.
With “t-octylphenoxypolyethoxyethanol [Triton X-100]”, the Solubility of surfactant entry in data set [3] (pH 6) and in data set [3] (pH 10) was “S” in each case. Besides, the “maceration of liver slice” value amounted to 0% in the data set with slices of liver (setting [11]); 100% in the data set on slices of liver (setting [12]); 0% in the data set with slices of liver (setting [13]); 30% in the data set on slices of liver (setting [14]); 0% in the data set on slices of liver (No Proteinase K, 2-5 hr, additive 2%); 0% in the data set with slices of liver (setting [5]).
